1 compound from publication PMC2678990, “Stilbene glycosides are natural product inhibitors of FGF-2-induced angiogenesis” (BMC Cell Biology, 2009) can be followed below.

The test system of this experiment is bovine aortic endothelial cells (BAEC). Description: Proliferation without growth factors (15% FBS). The format is cell-based. The procedure:
Cells were seeded in triplicate at a concentration of 6.0 × 10^5/ml, in 2 ml of complete medium in 6-well plates. […] […] Control wells were treated with 5 μl DMSO. Concentration ranges of test compounds and pre-incubation times were based on pilot studies. After 72 h, cells were washed in PBS, detached in 0.05%w/v trypsin in PBS, and counted on a Coulter counter (Coulter Electronics, Hialeah, FL) set to a threshold of 30 μm. Experiments were performed in triplicate and repeated at least twice.

Take `COc1cc(C=Cc2ccc(O)cc2)cc(OC2OC(COC3OC(C)C(O)C(O)C3O)C(O)C(O)C2OC2OC(C)C(O)C(O)C2O)c1` (centres unmarked) [Compound 1]: the “Effect on growth in the absence of growth factors” value (1.4–71.5 μM) is “no significant effect”. Moreover, the 50% inhibitory concentration (IC50) (Bos taurus, NS = overall inhibition less than 50%) was above 71.5 µM.
